In patent US11776661B2, “Determination of MAPK-AP-1 pathway activity using unique combination of target genes” (InnoSIGN B.V., priority 2017, dated 2023):

What was measured:
[1] = tested on: MAPK-AP-1 cellular signaling pathway; test: MAPK-AP-1 pathway activity prediction (11 target gene shortlist) on GSE58235, HepG2 (Human Hepatoma) cell line; format: cell-based; conditions: compared to DMSO and Ethanol
Procedure: The HepG2 (Human Hepatoma) cell line was treated with 0.5% DMSO (group 1: all 3 samples are part of the calibration data set; group 4: 1 sample is part of the calibration data set), 0.5% Ethanol (groups 2 and 5) or 500 nM TPA (group 3: all 3 samples are part of the calibration data set; and group 6) for 24 hours (groups 1 to 3) or 48 hours (groups 4 to 6). In the diagram, the vertical axis indicates the odds (on a log 2 scale) that the TF element is “present” resp. “absent”, which corresponds to the MAPK-AP-1 cellular signaling pathway being active resp. passive, wherein values above the horizontal axis correspond to the TF element being more likely “present”/active and values below the horizontal axis indicate that the odds that the TF element is “absent”/passive are larger than the odds that it is “present”/active.

[2] = tested on: MAPK-AP-1 cellular signaling pathway; test: MAPK-AP-1 pathway activity prediction (Bayesian network model, 24 target genes list) on GSE28878, HepG2 cell line; format: cell-based, human; conditions: HepG2, 500 nM TPA, 12 h, 24 h, 48 h, vs DMSO control vehicle
Procedure: A HepG2 cell line was treated with DMSO as control vehicle (group 1: 12 h, all 3 samples are part of the calibration data set; group 3: 24 h, 2 samples are part of the calibration data set; group 5: 48 h, 1 sample is part of the calibration data set) or 500 nM TPA (group 2: 12 h, 1 sample is part of the calibration data set; group 4: 24 h, all 3 samples are part of the calibration data set; group 6: 48 h). In the diagram, the vertical axis indicates the odds (on a log 2 scale) that the TF element is “present” resp. “absent”, which corresponds to the MAPK-AP-1 cellular signaling pathway being active resp. passive, wherein values above the horizontal axis correspond to the TF element being more likely “present”/active and values below the horizontal axis indicate that the odds that the TF element is “absent”/passive are larger than the odds that it is “present”/active.

[3] = tested on: MAPK-AP-1 cellular signaling pathway; test: MAPK-AP-1 pathway activity prediction (11 target gene shortlist) on GSE40117, HepG2; format: cell-based, human; conditions: HepG2, 0.0001 μM TPA vs control conditions
Procedure: (§1) Human embryonic stem cell derived hepatocyte like cells (hES-Hep) were treated with 0.11 μM TPA (group 2: all 3 samples are part of the calibration data set) and compared to control conditions (group 1). HepG2 (a human liver cancer cell line) were treated with 0.0001 μM TPA (group 4: 3 samples are part of the calibration data set) and compared to control conditions (group 3: 1 sample is part of the calibration data set). In the diagram, the vertical axis indicates the odds (on a log 2 scale) that the TF element is “present” resp. “absent”, which corresponds to the MAPK-AP-1 cellular signaling pathway being active resp. passive, wherein values above the horizontal axis correspond to the TF element being more likely “present”/active and values below the horizontal axis indicate that the odds that the TF element is “absent”/passive are larger than the odds that it is “present”/active.

[4] = tested on: MAPK-AP-1 cellular signaling pathway; test: MAPK-AP-1 pathway activity prediction (24 target genes list) on GSE66853, U937 cells; format: cell-based, human; conditions: 50 ng/ml TPA for 24 h, compared to Ethanol
Procedure: U937 cells were treated with Ethanol as control vehicle (group 1: all 3 samples are part of the calibration data set; and group 3) or 50 ng/ml TPA (group 2: 1 sample is part of the calibration data set; and group 4) for 24 h. U937 cells were either transduced with an empty vector (groups 1 and 2) or with an EVI1 expression vector (groups 3 and 4). In the diagram, the vertical axis indicates the odds (on a log 2 scale) that the TF element is “present” resp. “absent”, which corresponds to the MAPK-AP-1 cellular signaling pathway being active resp. passive, wherein values above the horizontal axis correspond to the TF element being more likely “present”/active and values below the horizontal axis indicate that the odds that the TF element is “absent”/passive are larger than the odds that it is “present”/active. […] Although it is known that the FOS and JUN promoter region contains EVI1 binding sites it seems that this effect on AP-1 activity is very small compared to the addition of 50 ng/ml TPA.

[5] = tested on: MAPK-AP-1 cellular signaling pathway; test: MAPK-AP-1 pathway activity prediction (24 target genes list) on E-MEXP-2213, K562 (erythroleukemia) cells; format: cell-based; conditions: K562, 10 nM TPA vs not treated
Procedure: K562 (erythroleukemia) cells were either not treated (group 1) or treated with 10 nM TPA (group 2). In the diagram, the vertical axis indicates the odds (on a log 2 scale) that the TF element is “present” resp. “absent”, which corresponds to the MAPK-AP-1 cellular signaling pathway being active resp. passive, wherein values above the horizontal axis correspond to the TF element being more likely “present”/active and values below the horizontal axis indicate that the odds that the TF element is “absent”/passive are larger than the odds that it is “present”/active.

[6] = tested on: MAPK-AP-1 cellular signaling pathway; test: MAPK-AP-1 pathway activity prediction (11 target gene shortlist) on GSE40117, hES-Hep cells; format: cell-based, Human; conditions: 0.11 μM TPA vs control conditions
Procedure: as §1

[7] = tested on: MAPK-AP-1 cellular signaling pathway; test: MAPK-AP-1 pathway activity prediction (11 target gene shortlist) on E-MEXP-2573, K562 (erythroleukemia) cells; format: cell-based; conditions: 100 nM TPA for a further 48 h
Procedure: RNA was extracted from K562 (erythroleukemia) cells after 24 h (groups 1 and 3) or cells were treated with 100 nM TPA for a further 48 h (groups 2 and 4). K562 were either transfected with a control empty vector (groups 1 and 2) or a BASP1-containing vector (groups 3 and 4). In the diagram, the vertical axis indicates the odds (on a log 2 scale) that the TF element is “present” resp. “absent”, which corresponds to the MAPK-AP-1 cellular signaling pathway being active resp. passive, wherein values above the horizontal axis correspond to the TF element being more likely “present”/active and values below the horizontal axis indicate that the odds that the TF element is “absent”/passive are larger than the odds that it is “present”/active.

[8] = tested on: MAPK-AP-1 cellular signaling pathway; test: MAPK-AP-1 pathway activity prediction (24 target genes list) on GSE45417, U937 (histiocytic lymphoma) cell line; format: cell-based; conditions: U937, 100 nM TPA vs 0.1% DMSO
Procedure: The U937 (histiocytic lymphoma) cell line was treated with 0.1% DMSO as control vehicle (group 1: all 3 samples are part of the calibration data set; and group 3), or 100 nM TPA (group 2: all 3 samples are part of the calibration data set; and group 4). Additionally, ZXDC1 knockdown was induced using doxycycline (groups 3 and 4). In the diagram, the vertical axis indicates the odds (on a log 2 scale) that the TF element is “present” resp. “absent”, which corresponds to the MAPK-AP-1 cellular signaling pathway being active resp. passive, wherein values above the horizontal axis correspond to the TF element being more likely “present”/active and values below the horizontal axis indicate that the odds that the TF element is “absent”/passive are larger than the odds that it is “present”/active.

Measured: AP-1 activity (log2 odds that TF element is present) after exposure

CCCCCCCCCCCCCC(=O)O[C@@H]1[C@@H](C)[C@@]2(O)[C@@H](C=C(CO)C[C@]3(O)C(=O)C(C)=C[C@@H]23)[C@@H]2C(C)(C)[C@]12OC(C)=O [TPA, 12-O-Tetradecanoylphorbol-13-acetate]
large increase: [1]; HepG2, 500 nM TPA for 24 hours | [1]; HepG2, 500 nM TPA for 48 hours | [2] | [3] | [4]; U937 transduced with EVI1 expression vector | [4]; U937 transduced with empty vector | [5] | [6] | [7]; K562 transfected with BASP1-containing vector | [7]; K562 transfected with control empty vector | [8]; ZXDC1 knockdown induced using doxycycline | [8]; without ZXDC1 knockdown
